The target in test [1] is T1, stromelysin (catalytic domain) (Homo sapiens, UniProt P08254).
T1 construct: The catalytic domain of stromelysin was prepared in accordance with well-known known procedures; made in house
Put plainly: ESI-MS detection of noncovalent complexes and competition experiments with stromelysin. The note with it: for specificity of association (no greater than 1:1 complex): ESI-MS; for competition of two ligands for the same binding site: pairwise ESI-MS experiment, ternary complex present or absent; for competitive / non-competitive binder or non-binder: ESI-MS competition experiments, S1′ site, same binding site as 4-phenylpyridine. The class given is binding. How it is done: FIGS. 7A-7E are ligands that are known to bind in the S1′ site on stromelysin. […] The relative dissociation constants for each for each ligand were measured to optimize the amide. Competition experiments were also performed to assure that each ligand bound in the same binding site as 4-phenylpyridine. [drawing 41]
Acetohydroxamic acid was used as the ligand for the first binding site of stromelysin. It has been reported that complexation of zinc with acetohydroxamic acid prevents autocatalytic degradation of the protein.
The ESI-MS measurements were recorded on a Perkin Elmer Sciex API III mass spectrometer. Samples were introduced via […] i.d. fused silica capillary from a 50 μL syringe using a Harvard Apparatus Model 22-syringe pump at a flow rate of 1.500 μL/min. The orifice potential was set between 55 and 65V, and the interface heater was at 56° C. Mass spectra were obtained by averaging a sufficient number of scans to obtain adequate signal to noise.
The sample was analyzed by ESI-MS.
The catalytic domain of stromelysin was prepared in accordance with well-known known procedures. […] The stromelysin used for this study was in a solution of 20 mM Tris buffer, 5 mM CaCl2, 0.02% NaN3 at a pH of 7.5 and at a concentration of either 19.6 mg/mL or 21.7 mg/mL. Acetohydroxamic acid was used for the zinc-binding site.
The second step in the design process was the identification of a second ligand that binds to the target stromelysin at a site different from the binding site of acetohydroxamic acid. This may be accomplished by screening compounds for their ability to bind stromelysin in the presence of saturating amounts of acetohydroxamic acid.
The next step in the design process was to construct a ternary complex of the target stromelysin, the first ligand and the second ligand. This was accomplished by exposing the stromelysin target to the two ligands under conditions that result in complex formation.

The target of another test is T2, PTP1b (Homo sapiens, UniProt P18031).
T2 sequence (P18031 1-435): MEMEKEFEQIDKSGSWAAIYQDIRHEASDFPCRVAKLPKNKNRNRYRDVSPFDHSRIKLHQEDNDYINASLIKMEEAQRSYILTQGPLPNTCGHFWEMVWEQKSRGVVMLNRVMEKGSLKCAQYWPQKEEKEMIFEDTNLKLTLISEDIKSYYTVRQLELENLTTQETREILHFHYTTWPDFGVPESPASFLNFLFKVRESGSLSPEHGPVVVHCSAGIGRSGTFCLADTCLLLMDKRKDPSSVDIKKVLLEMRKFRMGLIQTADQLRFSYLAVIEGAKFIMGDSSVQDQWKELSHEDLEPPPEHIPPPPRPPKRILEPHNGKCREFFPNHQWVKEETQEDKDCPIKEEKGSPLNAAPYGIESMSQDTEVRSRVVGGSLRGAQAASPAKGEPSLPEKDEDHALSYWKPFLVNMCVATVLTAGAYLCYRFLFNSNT
Put plainly: chromagenic substrate assay of PTP1b function. It counts as biochemical. As to conditions: titration curves, FIG. 4. The procedure:
FIG. 4 is a graph of titration curves used to determine the IC50 of the squaric acid fragment 8A and moniliformin.
(§1) The candidate target binding ligands shown below were tested by mass spectrometry in a manner similar to Example 1 to determine whether any of the fragments bound specifically to the target biomolecule, protein tyrosine phosphatase 1b (PTP1b), observed 1:1 noncovalent complex. Fragment molecules were chosen based on either their ability to mimic the stabilized transition state of PTP1b with a tyrosine phosphate ester or based on their known or suspected ability to inhibit cysteine proteases and the homology or similarities in the active sites PTP1b and cysteine proteases. The transition state mimics included in the library are derivatives of moniliformin and deltic acid. Each of these compounds contain a planar arrangement of oxygen atoms around and electrophilic center, similar to the planar arrangement of oxygen atoms around an electrophilic phosphorous in the stabilized transition state complex of phosphotyrosine and PTP1b. Also contained in the library were various examples of some fragment molecules containing functional groups known or suspected to interact with an active site cysteine of cysteine proteases. Included in this example are aldehydes, α-ketoacids, boronic acids, and […]. Other fragment molecules could contain functional groups such as α-ketoesters, sulfonyl fluorides, haloketones, azabenzenes, and disulfides and other fragment molecules that contain functional groups known or suspected to react with mercaptans. […] The ability of these fragments to block the function of PTP1b was determined by a chromagenic substrate assay.

For test [2], the target named is T3, protein tyrosine phosphatase 1b (PTP1b) (Homo sapiens, UniProt P18031).
T3 sequence (P18031 1-435): T2 sequence (P18031 1-435)
The test is described as follows: ESI-MS detection of 1:1 noncovalent complex with PTP1b. The class given is binding. As to conditions: mass spectrometry; for formation of specific complex with PTP1b: 1:1 noncovalent complex. How it is done:
as §1

Each structure is given as a SMILES string. Entries after “also recorded” stand apart in the source; their conditions may differ. Where two headings read alike, the source gives them in different places.

T1 sequence (P08254 100-272 limits assumed): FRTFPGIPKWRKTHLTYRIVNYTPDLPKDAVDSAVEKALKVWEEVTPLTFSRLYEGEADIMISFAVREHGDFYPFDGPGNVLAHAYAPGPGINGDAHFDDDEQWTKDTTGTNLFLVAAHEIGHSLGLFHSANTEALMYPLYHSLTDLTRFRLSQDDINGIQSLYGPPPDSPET

Consider `N#Cc1ccc(-c2ccc(O)cc2)cc1` [4-(4′-cyanophenyl)-phenol], for which, in test [1], the “specificity of association (no greater than 1:1 complex)” value is reported as “specific” and the “competition of two ligands for the same binding site” value (shortened to “competition of two ligands”) is “do not compete for the same binding site on a protein”.

As for `COc1ccc(C(=O)Nc2ccccc2)cc1` [4-methoxy-N-phenylbenzamide], in test [1], the “specificity of association (no greater than 1:1 complex)” value was “specific” and the “competition of two ligands” value is recorded as “compete for the same binding site on the protein”. For `c1ccc(-c2ccncc2)cc1` [4-phenylpyridine], the “specificity of association (no greater than 1:1 complex)” value in test [1] is recorded as “specific; also recorded: bind to the protein specifically”. In the case of `O=c1c(O)c(-c2ccccc2)c1=O` [Compound 8A], on PTP1b (read-out: IC50), the 50% inhibitory concentration (IC50) came out at 60 µM. Also, the “formation of specific complex with PTP1b” value in test [2] was “formed specific complexes with PTP1b”. Further, the dissociation constant Kd in test [2] (read-out: binding constant (Kd)) was determined as 25 µM. Turning to `O=CCCc1ccccc1` [Compound 8D], the IC50 entry at PTP1b is given as “did not have the ability to block function”. The “formation of specific complex with PTP1b” value in test [2] is “formed specific complexes with PTP1b”.

Regarding `c1ccc(-c2ccncc2)cc1` [Ligand 7B], the “competitive / non-competitive binder or non-binder” value in test [1] is on record as “non-competitive binders”. Regarding `COc1ccc(C(=O)NCc2ccccc2)cc1` [Ligand 7G], in test [1], the “competitive / non-competitive binder or non-binder” value is given as “competitive binders”. With `N#Cc1ccc(NC(=O)Cc2ccccc2)cc1` [N-(4-cyanophenyl)-2-phenylacetamide], in test [1], the “specificity of association (no greater than 1:1 complex)” value is given as “bind to the protein specifically” and the “competition of two ligands” value is on record as “do not compete for the same binding site on the protein”. For `CC(=O)NO` [acetohydroxamic acid] the same measures were “specific” and “do not compete for the same binding site on a protein”. For `O=c1cc(O)c1=O` [moniliformin], on PTP1b (read-out: IC50), the IC50 was found to be 12 µM.

The term IC50 denotes the midpoint of a concentration-inhibition curve. The term Kd denotes the concentration at which binding is half-saturated.

For the origin of these results see patent US20020172967A1, “Identification of non-covalent complexes by mass spectrometry” (priority 2001, published 2002).
